Read-outs that look alike come from different tables or passages of the source.
How the values were obtained:
Target C = test: RT-qPCR splicing assay panel, Target C canonical junction (CJ) mRNA; assay type: cell-based, human; conditions: Homo sapiens
Method in brief: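 Cells are plated (A673 allowed 24 h to adhere), dosed with an 11-point 3-fold series topping at 10 uM final, and incubated 24 h at 37 °C. Lysis is followed by cDNA synthesis and qPCR of the CJ transcript, normalized to a housekeeping gene.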

MYB = test: HiBiT protein abundance assay, MYB HiBiT K562 cell line; assay type: cell-based, human; conditions: 24 hours, top dose 10 μM
Method in brief: (§1)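 Endogenous targets in K562 knock-in lines carried a HiBiT tag and were treated for 24 h at 37 °C with 10-point 3-fold dilutions (top 10 μM final, DMSO ≤0.25%). Abundance was read as lytic Nano-Glo HiBiT luminescence. IC50 came from a four-parameter logistic fit of normalized response.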

HTT = test: HiBiT protein abundance assay, HTT HiBiT K562 cell line; assay type: cell-based, human; conditions: 24 hours, top dose 10 μM
Method in brief: as §1

[1] = test system: K562 (human chronic myelogenous leukemia) cells; test: Cell Titer Glo 2.0 cell viability assay; assay type: cell-based; conditions: K562 cells, 72 hours, Cell Titer Glo 2.0, read-out: K562 GI50
[2] = Table 5 panel, canonical junction qPCR, compound concentration having 50% response in CJ decrease, read-out: Target C IC50 (decrease in CJ mRNA levels)
[3] = HiBiT K562 cell line, read-out: Effect on protein abundance, MYB (IC50 category)
[4] = HiBiT K562 cell line, read-out: Effect on protein abundance, HTT (IC50 category)
[5] = canonical junction qPCR panel, Table 5, read-out: Target C (decrease in CJ mRNA levels, IC50)
[6] = HiBiT lytic detection, modified K562 cells, read-out: Effect on protein abundance, MYB (IC50)
[7] = HiBiT lytic detection, modified K562 cells, read-out: Effect on protein abundance, HTT (IC50)

SMILES	IC50 (Target C; [2])	IC50 (MYB; [3])	IC50 (HTT; [4])	GI50 ([1]; Homo sapiens, K562, 72 h)	IC50 (Target C; [5])	IC50 (MYB; [6])	IC50 (HTT; [7])	GI50 [1]
Cc1cn2cc(-c3ccc4c(c3)CCN(C3CCNCC3)C4=O)cc(C)c2n1 [Compound 217, 6-[2,8-dimethylimidazo[1,2-a]pyridin-6-yl]-2-(piperidin-4-yl)-3,4-dihydroisoquinolin-1-one]	> 10000 nM	100 to 1000 nM	100 to 1000 nM	1000 to 10000 nM				
CCN1CC[C@H](n2ncc3nc(-c4cc(C)c5nc(C)cn5n4)ccc3c2=O)CC12CC2 [Compound 1531]				100 to 1000 nM	100 to 1000 nM	100 to 1000 nM	100 to 1000 nM	
Cn1cc2cc(-c3ncc4c(=O)n(C56CCC(N)(CC5)C6)ccc4n3)c(O)cc2n1 [Compound 1470]				100 to 1000 nM	1000 to 10000 nM	100 to 1000 nM	1000 to 10000 nM	
Cc1cc(-c2ccc3c(=O)n(C4CCN(C)CC4)cnc3c2F)cc2cn(C)nc12 [Compound 235]	> 10000 nM	1000 to 10000 nM	> 10000 nM	1000 to 10000 nM				
Cc1c(O)c(-c2ncc3c(=O)n([C@@H]4CC[C@H](N)C4)ccc3n2)cc2cn(C)nc12 [Compound 1477]					100 to 1000 nM	100 to 1000 nM	< 100 nM	< 100 nM
Cc1cc(-c2cc(F)c3c(=O)n(C4CCNCC4)cnc3c2)cc2cn(C)nc12 [Compound 232]	100 to 1000 nM	< 100 nM	< 100 nM	100 to 1000 nM				
Cc1c(O)c(-c2ncc3c(=O)n([C@@H]4CCN[C@@H](C)C4)ccc3n2)cc2cn(C)nc12 [Compound 1462, 2-(6-hydroxy-2,7-dimethyl-indazol-5-yl)-6-[(2S,4R)-2-methyl-4-piperidyl]pyrido[4,3-d]pyrimidin-5-one]		< 100 nM	< 100 nM	< 100 nM	100 to 1000 nM			
Cc1c(O)c(-c2ccc3c(=O)n(C4CCNC4)cc(C)c3n2)cc2cn(C)nc12 (stereo not shown) [Compound 1467]				100 to 1000 nM	> 10000 nM	100 to 1000 nM	100 to 1000 nM	
Cc1c(O)c(-c2ncc3c(=O)n([C@H]4CC[C@H](N(C)C)CC4)ccc3n2)cc2cn(C)nc12 [Compound 1459, 6-((1r,4r)-4-(dimethylamino)cyclohexyl)-2-(6-hydroxy-2,7-dimethyl-2H-indazol-5-yl)pyrido[4,3-d]pyrimidin-5(6H)-one]		< 100 nM	100 to 1000 nM	< 100 nM	100 to 1000 nM			
Cc1cn2nc(-c3ccc4c(=O)n(C5CCNC6(CCC6)C5)ncc4n3)cc(C)c2n1 (stereo not shown) [Compound 1553]				1000 to 10000 nM	1000 to 10000 nM	1000 to 10000 nM	100 to 1000 nM	
Cc1cn2cc(-n3cnc4ccc(N5CCN(C)CC5)cc4c3=O)cc(F)c2n1 [Compound 2197]				1000 to 10000 nM	1000 to 10000 nM	1000 to 10000 nM	1000 to 10000 nM	
Cc1cn2nc(-c3ccc4c(=O)n(C5CC(C)N[C@H](C)C5)ncc4n3)cc(C)c2n1 (stereo in doubt) [Compound 1536, 2-(2,8-dimethylimidazo[1,2-b]pyridazin-6-yl)-6-[(2S,6R)-2,6-dimethyl-4-piperidyl]pyrido[2,3-d]pyridazin-5-one]				100 to 1000 nM	100 to 1000 nM	100 to 1000 nM	100 to 1000 nM	
Cc1cn2cc(-c3ccc4c(c3)CCN(C3CCNCC3)C4=O)ncc2n1 [Compound 224]	> 10000 nM	> 10000 nM	> 10000 nM	> 10000 nM				
